# Assay results: patent US12252701B2, “Chimeric antigen receptor T cell therapy” (KITE PHARMA, INC., priority 2020, dated 2025)
# Where two headings read alike, the source gives them in different places.
# What was measured:
# [1] = system: CAR-T cells; assay: CAR-T cell expansion assay (KIP-1 or CD3/CD28 stimulation); settings: for % viability: CD3/CD28; for % viabili.: CD3/CD28 stimulation; for % viabi.: KIP-1 stimulation
# [2] = cited from earlier work
# [3] = system: CD19 CAR T cells; assay: CAR T cell cytokine production (Luminex) under CD19 K562, KIP-1 or CD2/3/28 stimulation; settings: 72 h; for IC50: Homo sapiens, T-cell
# Description: Cryopreserved healthy donor CLP CD19 CAR T cells were thawed and rested overnight in 100 U/ml of IL-2 at 1×10^6/ml. 2.5×10^5 CD19 CART cells were plated in 96-well RB plate wells in a total volume of 200 μl of R10 culture media. […] CD19 CART cell cytokine production was allowed to proceed through 72 hours in the presence of stimulator and JAKi or steroid. Following 72 h of culture, 100 μl of the cell supernatant of each well were harvested and stored at −80° C. for later Luminex/Bioplex-200 cytokine analysis. Briefly, stored supernatants were thawed and 50 μl of the sample was assayed for cytokines using a ThermoFisher Procarta Plex 19-plex human cytokine assay kit (ThermoFisher, Carlsbad, CA) according to kit manufacturer's instructions and detected using a BioRad Bioplex-200 instrument. The data points generated from the luminex cytokine assay were transferred to a GraphPad PRISM IC50 dose-response curve analysis to generate IC50 or potency values for the JAKi's and steroids tested.
# [4] = system: phospho-STAT-1, -3 and -5 in CD4, CD8 T cells and monocytes (CAR T product, PBMCs); assay: Intracellular phospho-STAT-1, -3, -5 by flow cytometry in immune cell subsets of CAR T product and PBMCs; format: cell-based, human; set-up: Primary Cell IL-6 pSTAT5 signaling (% inhibition) / Primary Cell IL-6 pSTAT1 signaling (% inhibition) / Primary Cell IL-6 pSTAT3 signaling (% inhibition) / Primary cell GM-CSF-pSTAT5, inhibition: concentration or dose not given beside the values
# Description: Further experiments were performed to look at impacts of JAK inhibitors on STAT phosphorylation in various immune cell subsets.
# [5] = system: NALM6.GFP.LUC.CD19 target cells; assay: Serial killing assay of CAR-T, percent cytotoxicity by luciferase detection; settings: two different E:T ratios, dose titration
# Description: The percent cytotoxicity to NALM6.GFP.LUC.CD19 target cells was measured by luciferase detection at each round.
# In one embodiment, a serial killing assay is a combination of cell killing and how long it takes for CAR T cells to get exhausted under repeated stimulation. In one embodiment, a serial killing assay is a surrogate measure for CAR T cell persistence in vivo.
compound,measurement,setting,value
CC[C@@H]1CN(C(=O)NCC(F)(F)F)C[C@@H]1c1cnc2cnc3[nH]ccc3n12 [upadacitinib],% viability,"[1]; dose 50 nM, day 4",74.4%
same,% viability,"[1]; dose 50 nM, day 8",69.5%
same,% viability,"[1]; dose 50 nM, day 12",80.6%
same,% viability,"[1]; dose 100 nM, day 4",64.1%
same,% viability,"[1]; dose 100 nM, day 8",69.2%
same,% viability,"[1]; dose 100 nM, day 12",66.4%
same,% viabili.,"[1]; 10 nM, Day 0",84%
same,% viabili.,"[1]; 10 nM, Day 4",92.6%
same,% viabili.,"[1]; 10 nM, Day 8",88.4%
same,% viabili.,"[1]; 10 nM, Day 12",71.6%
same,% viabili.,"[1]; 20 nM, Day 0",84%
same,% viabili.,"[1]; 20 nM, Day 4",93.8%
same,% viabili.,"[1]; 20 nM, Day 8",92%
same,% viabili.,"[1]; 20 nM, Day 12",72.7%
same,% viabili.,"[1]; 40 nM, Day 0",84%
same,% viabili.,"[1]; 40 nM, Day 4",91.4%
same,% viabili.,"[1]; 40 nM, Day 8",77%
same,% viabili.,"[1]; 40 nM, Day 12",73.2%
same,% viabili.,"[1]; 60 nM, Day 0",84%
same,% viabili.,"[1]; 60 nM, Day 4",90.6%
same,% viabili.,"[1]; 60 nM, Day 8",90.5%
same,% viabili.,"[1]; 60 nM, Day 12",76.3%
same,% viabili.,"[1]; 80 nM, Day 0",84%
same,% viabili.,"[1]; 80 nM, Day 4",88.3%
same,% viabili.,"[1]; 80 nM, Day 8",86.4%
same,% viabili.,"[1]; 80 nM, Day 12",75%
same,% viabili.,"[1]; 100 nM, Day 0",84%
same,% viabili.,"[1]; 100 nM, Day 4",84.2%
same,% viabili.,"[1]; 100 nM, Day 8",84.3%
same,% viabili.,"[1]; 100 nM, Day 12",72.5%
same,% viabi.,"[1]; 10 nM, Day 0",84%
same,% viabi.,"[1]; 10 nM, Day 4",85.2%
same,% viabi.,"[1]; 10 nM, Day 8",72.1%
same,% viabi.,"[1]; 10 nM, Day 12",72.7%
same,% viabi.,"[1]; 20 nM, Day 0",84%
same,% viabi.,"[1]; 20 nM, Day 4",82.1%
same,% viabi.,"[1]; 20 nM, Day 8",70.1%
same,% viabi.,"[1]; 20 nM, Day 12",74.8%
same,% viabi.,"[1]; 40 nM, Day 0",84%
same,% viabi.,"[1]; 40 nM, Day 4",79.3%
same,% viabi.,"[1]; 40 nM, Day 8",59.3%
same,% viabi.,"[1]; 40 nM, Day 12",73.8%
same,% viabi.,"[1]; 60 nM, Day 0",84%
same,% viabi.,"[1]; 60 nM, Day 4",67.9%
same,% viabi.,"[1]; 60 nM, Day 8",76.4%
same,% viabi.,"[1]; 60 nM, Day 12",68.9%
same,% viabi.,"[1]; 80 nM, Day 0",84%
same,% viabi.,"[1]; 80 nM, Day 4",70.9%
same,% viabi.,"[1]; 80 nM, Day 8",68.8%
same,% viabi.,"[1]; 80 nM, Day 12",62.5%
same,% viabi.,"[1]; 100 nM, Day 0",84%
same,% viabi.,"[1]; 100 nM, Day 4",59.3%
same,% viabi.,"[1]; 100 nM, Day 8",60.9%
same,% viabi.,"[1]; 100 nM, Day 12",61.7%
same,concentration at and above which severe effects on expansion were seen,"[1]; further dose titrations, depending on the mode of stimulation",20 to 40 nM
same,Cmax,"[2]; clinical dosing, patient sera, repeat dose studies",0.0739 µg/mL
same,Protein binding,"[2]; plasma protein binding, reported",~50%
same,IC50,"[3]; read-out: Suppression of cytokine production, GMCSF (IC50), CD3/CD28 stimulation, 72 h",< 0.1 µM
same,IC50,"[3]; read-out: Suppression of cytokine production, GMCSF (IC50), K562-CD19 stimulation, 72 h",> 10 µM
same,IC50,"[3]; read-out: Suppression of cytokine production, GMCSF (IC50), KIP-1 stimulation, 72 h",< 0.1 µM
same,IC50,"[3]; read-out: Suppression of cytokine production, GzB (IC50), CD3/CD28 stimulation, 72 h",< 0.1 µM
same,IC50,"[3]; read-out: Suppression of cytokine production, GzB (IC50), K562-CD19 stimulation, 72 h",1.03 µM
same,IC50,"[3]; read-out: Suppression of cytokine production, GzB (IC50), KIP-1 stimulation, 72 h",> 10 µM
same,IC50,"[3]; read-out: Suppression of cytokine production, IFNg (IC50), CD3/CD28 stimulation, 72 h",> 10 µM
same,IC50,"[3]; read-out: Suppression of cytokine production, IFNg (IC50), KIP-1 stimulation, 72 h",> 10 µM
same,IC50,"[3]; read-out: Suppression of cytokine production, IL-2Ra (IC50), CD3/CD28 stimulation, 72 h",< 0.1 µM
same,IC50,"[3]; read-out: Suppression of cytokine production, IL-2Ra (IC50), K562-CD19 stimulation, 72 h",< 0.1 µM
same,IC50,"[3]; read-out: Suppression of cytokine production, IL-2Ra (IC50), KIP-1 stimulation, 72 h",< 0.1 µM
same,IC50,"[3]; read-out: Suppression of cytokine production, IL-6 (IC50), CD3/CD28 stimulation, 72 h",< 0.1 µM
same,IC50,"[3]; read-out: Suppression of cytokine production, IL-6 (IC50), KIP-1 stimulation, 72 h",< 0.1 µM
same,IC50,"[3]; read-out: Suppression of cytokine production, IL-8 (IC50), CD3/CD28 stimulation, 72 h",< 0.1 µM
same,IC50,"[3]; read-out: Suppression of cytokine production, IL-8 (IC50), K562-CD19 stimulation, 72 h",< 0.1 µM
same,IC50,"[3]; read-out: Suppression of cytokine production, IL-8 (IC50), KIP-1 stimulation, 72 h",< 0.1 µM
same,IC50,"[3]; read-out: Suppression of cytokine production, IL-10 (IC50), CD3/CD28 stimulation, 72 h",< 0.1 µM
same,IC50,"[3]; read-out: Suppression of cytokine production, IL-10 (IC50), K562-CD19 stimulation, 72 h",< 0.1 µM
same,IC50,"[3]; read-out: Suppression of cytokine production, IL-10 (IC50), KIP-1 stimulation, 72 h",< 0.1 µM
same,IC50,"[3]; read-out: Suppression of cytokine production, MCP-1 (IC50), CD3/CD28 stimulation, 72 h",< 0.1 µM
same,IC50,"[3]; read-out: Suppression of cytokine production, MCP-1 (IC50), K562-CD19 stimulation, 72 h",< 0.1 µM
same,IC50,"[3]; read-out: Suppression of cytokine production, MCP-1 (IC50), KIP-1 stimulation, 72 h",< 0.1 µM
same,IC50,"[3]; read-out: Suppression of cytokine production, MIG (IC50), CD3/CD28 stimulation, 72 h",< 0.1 µM
same,IC50,"[3]; read-out: Suppression of cytokine production, MIG (IC50), K562-CD19 stimulation, 72 h",< 0.1 µM
same,IC50,"[3]; read-out: Suppression of cytokine production, MIG (IC50), KIP-1 stimulation, 72 h",< 0.1 µM
same,IC50,"[3]; read-out: Suppression of cytokine production, MIP-1a (IC50), CD3/CD28 stimulation, 72 h",< 0.1 µM
same,IC50,"[3]; read-out: Suppression of cytokine production, MIP-1a (IC50), K562-CD19 stimulation, 72 h",< 0.1 µM
same,IC50,"[3]; read-out: Suppression of cytokine production, MIP-1a (IC50), KIP-1 stimulation, 72 h",0.708 µM
same,IC50,"[3]; read-out: Suppression of cytokine production, MIP-1b (IC50), CD3/CD28 stimulation, 72 h",< 0.1 µM
same,IC50,"[3]; read-out: Suppression of cytokine production, MIP-1b (IC50), K562-CD19 stimulation, 72 h",< 0.1 µM
same,IC50,"[3]; read-out: Suppression of cytokine production, MIP-1b (IC50), KIP-1 stimulation, 72 h",0.146 µM
same,IC50,"[3]; read-out: Suppression of cytokine production, Perforin (IC50), CD3/CD28 stimulation, 72 h",< 0.1 µM
same,IC50,"[3]; read-out: Suppression of cytokine production, Perforin (IC50), K562-CD19 stimulation, 72 h",< 0.1 µM
same,IC50,"[3]; read-out: Suppression of cytokine production, Perforin (IC50), KIP-1 stimulation, 72 h",< 0.1 µM
same,IC50,"[3]; read-out: Suppression of cytokine production, TNFa (IC50), CD3/CD28 stimulation, 72 h",< 0.1 µM
same,IC50,"[3]; read-out: Suppression of cytokine production, TNFa (IC50), K562-CD19 stimulation, 72 h",< 0.1 µM
same,IC50,"[3]; read-out: Suppression of cytokine production, TNFa (IC50), KIP-1 stimulation, 72 h",< 0.1 µM
same,"Suppression of cytokine production, IFNg (IC50)",[3]; K562-CD19 stimulation,Suppress
same,"Suppression of cytokine production, IL-6 (IC50)",[3]; K562-CD19 stimulation,Suppress
same,Primary Cell IL-6 pSTAT1 signaling (% inhibition),[4]; CD4 CART cells,49%
same,Primary Cell IL-6 pSTAT3 signaling (% inhibition),[4]; CD4 CART cells,76%
same,Primary Cell IL-6 pSTAT5 signaling (% inhibition),[4]; CD4 CART cells,60%
same,Primary Cell IL-6 pSTAT1 signaling (% inhibition),[4]; CD8 CART cells,13%
same,Primary Cell IL-6 pSTAT3 signaling (% inhibition),[4]; CD8 CART cells,48%
same,Primary Cell IL-6 pSTAT5 signaling (% inhibition),[4]; CD8 CART cells,52%
same,"Primary cell GM-CSF-pSTAT5, inhibition",[4]; Monocytes within bulk PBMCs,97%
same,Primary Cell IL-6 pSTAT1 signaling (% inhibition),[4]; PBMC CD4 T cells,74%
same,Primary Cell IL-6 pSTAT3 signaling (% inhibition),[4]; PBMC CD4 T cells,91%
same,Primary Cell IL-6 pSTAT5 signaling (% inhibition),[4]; PBMC CD4 T cells,87%
same,Primary Cell IL-6 pSTAT1 signaling (% inhibition),[4]; PBMC CD8 T cells,32%
same,Primary Cell IL-6 pSTAT3 signaling (% inhibition),[4]; PBMC CD8 T cells,70%
same,Primary Cell IL-6 pSTAT5 signaling (% inhibition),[4]; PBMC CD8 T cells,56%
same,Primary Cell IL-6 pSTAT1 signaling (% inhibition),[4]; PBMC Monocytes,48%
same,Primary Cell IL-6 pSTAT3 signaling (% inhibition),[4]; PBMC Monocytes,93%
same,Primary Cell IL-6 pSTAT5 signaling (% inhibition),[4]; PBMC Monocytes,48%
same,"Primary cell GM-CSF-pSTAT5, inhibition",[4]; T cells within bulk PBMCs,47%
same,impact on CAR-T serial killing (percent cytotoxicity),[5],negative impacts
